Molecules are shown by their SMILES. Like-named read-outs stand apart in the source and are kept apart here.

The values that follow come from patent publication US20260297060A1, “COMPOUNDS FOR THE DEGRADATION OF MUTANT BRAF” (C4 THERAPEUTICS, INC., priority 2023, published 2026).

The target of assay [1] is T1, BRAF V600E (Homo sapiens, UniProt P15056+Q96SW2, V600E).
T1 construct: knock-in of the HiBiT tag to the endogenous BRAF V600E locus; host or cells: A375.10 (A375 clonal line, CRISPR HiBiT knock-in at the endogenous BRAF V600E locus)
T1 sequence (P15056 whole entry V600E): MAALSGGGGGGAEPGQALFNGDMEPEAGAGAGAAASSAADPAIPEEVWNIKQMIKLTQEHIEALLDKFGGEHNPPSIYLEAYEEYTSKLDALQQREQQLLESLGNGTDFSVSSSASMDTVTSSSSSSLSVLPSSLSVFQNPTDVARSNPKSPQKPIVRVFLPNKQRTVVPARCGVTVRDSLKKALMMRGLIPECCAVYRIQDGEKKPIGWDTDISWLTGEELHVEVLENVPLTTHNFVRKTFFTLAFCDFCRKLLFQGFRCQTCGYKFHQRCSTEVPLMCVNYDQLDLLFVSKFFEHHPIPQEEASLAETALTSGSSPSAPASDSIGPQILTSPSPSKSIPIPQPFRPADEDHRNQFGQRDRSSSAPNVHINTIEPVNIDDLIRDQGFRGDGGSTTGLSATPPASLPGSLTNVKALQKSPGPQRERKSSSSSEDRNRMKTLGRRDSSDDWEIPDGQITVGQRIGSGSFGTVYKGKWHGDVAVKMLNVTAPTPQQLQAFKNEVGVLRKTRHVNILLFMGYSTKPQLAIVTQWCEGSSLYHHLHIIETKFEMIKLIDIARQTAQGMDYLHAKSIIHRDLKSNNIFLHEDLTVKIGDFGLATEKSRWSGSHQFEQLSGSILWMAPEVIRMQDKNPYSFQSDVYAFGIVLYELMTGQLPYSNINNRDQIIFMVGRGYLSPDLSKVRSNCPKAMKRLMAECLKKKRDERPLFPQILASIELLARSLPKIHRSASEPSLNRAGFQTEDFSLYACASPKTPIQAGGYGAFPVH
T1 sequence (Q96SW2 whole entry): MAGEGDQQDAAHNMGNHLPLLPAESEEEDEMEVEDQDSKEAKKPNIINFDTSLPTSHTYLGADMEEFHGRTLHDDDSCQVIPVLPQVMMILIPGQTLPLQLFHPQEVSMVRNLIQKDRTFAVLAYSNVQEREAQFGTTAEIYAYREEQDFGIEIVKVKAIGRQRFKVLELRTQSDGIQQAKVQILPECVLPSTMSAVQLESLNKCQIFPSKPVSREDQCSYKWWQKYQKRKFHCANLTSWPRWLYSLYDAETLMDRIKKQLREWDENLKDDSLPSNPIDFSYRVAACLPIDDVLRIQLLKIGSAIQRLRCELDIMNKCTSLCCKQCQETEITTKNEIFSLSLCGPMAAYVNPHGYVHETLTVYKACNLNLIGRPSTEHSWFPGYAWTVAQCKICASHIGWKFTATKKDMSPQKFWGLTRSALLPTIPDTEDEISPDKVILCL
T1 sequence (Q16531 whole entry partner): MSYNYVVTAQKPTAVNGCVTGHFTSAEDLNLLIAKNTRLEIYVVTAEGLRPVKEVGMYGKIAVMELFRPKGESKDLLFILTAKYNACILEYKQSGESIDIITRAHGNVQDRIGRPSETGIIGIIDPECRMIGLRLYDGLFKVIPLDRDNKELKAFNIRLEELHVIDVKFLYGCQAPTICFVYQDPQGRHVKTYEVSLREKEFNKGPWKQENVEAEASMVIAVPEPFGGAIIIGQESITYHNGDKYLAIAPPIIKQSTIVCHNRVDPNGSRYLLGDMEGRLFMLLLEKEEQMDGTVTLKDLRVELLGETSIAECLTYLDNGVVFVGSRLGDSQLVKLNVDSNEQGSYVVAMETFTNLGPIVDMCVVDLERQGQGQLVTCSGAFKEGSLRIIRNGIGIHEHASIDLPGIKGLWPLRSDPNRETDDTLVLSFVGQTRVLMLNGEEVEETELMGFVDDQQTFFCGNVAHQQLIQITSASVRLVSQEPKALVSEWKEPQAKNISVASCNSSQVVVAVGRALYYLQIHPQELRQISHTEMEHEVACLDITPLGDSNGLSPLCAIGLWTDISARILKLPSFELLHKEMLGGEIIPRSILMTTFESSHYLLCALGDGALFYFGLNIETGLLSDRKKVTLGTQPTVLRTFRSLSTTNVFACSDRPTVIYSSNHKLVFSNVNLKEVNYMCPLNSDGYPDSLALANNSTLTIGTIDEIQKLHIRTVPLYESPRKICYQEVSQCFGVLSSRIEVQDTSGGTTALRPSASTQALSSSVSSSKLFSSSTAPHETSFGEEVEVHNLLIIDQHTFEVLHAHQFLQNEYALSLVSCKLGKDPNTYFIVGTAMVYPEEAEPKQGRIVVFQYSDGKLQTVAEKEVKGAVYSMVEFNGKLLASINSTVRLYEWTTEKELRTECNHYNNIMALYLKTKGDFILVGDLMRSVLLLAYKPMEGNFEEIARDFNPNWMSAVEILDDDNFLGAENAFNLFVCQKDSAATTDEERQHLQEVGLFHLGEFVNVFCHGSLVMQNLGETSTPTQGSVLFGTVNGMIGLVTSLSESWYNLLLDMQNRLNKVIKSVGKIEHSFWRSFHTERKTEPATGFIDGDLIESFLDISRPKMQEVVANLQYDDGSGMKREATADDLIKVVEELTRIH
As to the kind of experiment: BRAF V600E HiBiT Degradation Assay. The assay is classed as cell-based. The procedure, abridged:
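Endogenous HiBiT knock-in on BRAF V600E in A375 cells (clone A375.10); 11-point half-log series, top 10 μM, 2, 6 or 24 h at 37° C. Lytic HiBiT luminescence, background-subtracted, normalized to DMSO; 4-parameter fit gives DC50, Emax (residual protein) and IP (inflection point).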
(With HiBiT, luminescence reflects the tagged protein that the partner subunit can reach.)

Assay [2] relates to A375-NRAS^Q61K cells. Description: CTGlo Cell Viability Assay, A375-NRAS^Q61K (A375.11) cells, 96 hours. The assay is classed as cell-based, human. The following applies: A375.11 (A375-NRAS^Q61K) cells; for CTGlo A375.11 96 hours Emax / Emax: lowest % viability achieved. The procedure, abridged: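 Viability as CellTiter-Glo ATP luminescence after 96 h compound exposure at 37 °C; A375.11 (BRAF V600E/NRAS Q61K) cells at 250/well, top final concentration 10 μM in half-log steps. Signal was background-corrected and set relative to DMSO controls. A 4-parameter logistic fit gave GI50 (50% crossing) and Emax.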

The mark [3] stands for this setting: A375.10 cells, BRAF V600E, 2 hours, inflection point, read-out: HiBiT-Degradation A375.10 BRAF 2 hours IP.
[4] abbreviates: A375.10 cells, BRAF V600E, 2 hours, read-out: HiBiT-Degradation A375.10 BRAF 2 hours DC50.
[5] abbreviates: A375.10 cells, BRAF V600E, 2 hours, residual protein remaining, read-out: HiBiT-Degradation A375.10 BRAF 2 hours Emax.
Setting [6] is: A375.10 cells, BRAF V600E, 2 hours, residual protein remaining.

With `CCN(C)S(=O)(=O)Nc1ccc(F)c(Oc2ccc3ncc(OC4CC5(CCN(C6CCC(c7cc8c(cc7F)c(N7CCC(=O)NC7=O)nn8C)CC6)CC5)C4)nc3c2)c1C#N` (single isomer, unassigned) [Compound 219, 7-[2-cyano-3-[[ethyl(methyl)sulfamoyl]amino]-6-fluoro-phenoxy]-2-[[7-[4-[3-(2,4-dioxohexahydropyrimidin-1-yl)-5-fluoro-1-methyl-indazol-6-yl]cyclohexyl]-7-azaspiro[3.5]nonan-2-yl]oxy]quinoxaline], in assay [1], the “HiBiT-Degradation A375.10 BRAF 2 hours Emax” value is “** (<90% and >50%)”. The DC50 in assay [1] (setting [3]) was below 1000 nM. Moreover, in assay [1] (setting [4]), the DC50 was below 1000 nM. For the same compound, in assay [2], the 50% growth inhibitory concentration (GI50) (commonly the concentration that inhibits growth by half) was above 10 µM and the “CTGlo A375.11 96 hours Emax” value is on record as “*** (<=50%)”.

For `CCN(C)S(=O)(=O)Nc1ccc(F)c(Oc2ccc3ncn(C4CCC(N5CC6(CCN(c7cc8c(cc7F)c(N7CCC(=O)NC7=O)nn8C)CC6)C5)CC4)c(=O)c3c2)c1C#N` (single isomer, unassigned) [Compound 221, 6-[2-cyano-3-[[ethyl(methyl)sulfamoyl]amino]-6-fluoro-phenoxy]-3-[4-[7-[3-(2,4-dioxohexahydropyrimidin-1-yl)-5-fluoro-1-methyl-indazol-6-yl]-2,7-diazaspiro[3.5]nonan-2-yl]cyclohexyl]-4-oxo-quinazoline], the DC50 in assay [1] (setting [3]) and in assay [1] (setting [4]) was below 1000 nM throughout. In addition, the Emax was below 50% in assay [1] (setting [5]) and 50 to 90% in assay [2] (Homo sapiens, 96 h). Besides, the GI50 in assay [2] (Homo sapiens, 96 h) lay within 1 to 10 µM.

Consider `CCN(C)S(=O)(=O)Nc1ccc(F)c(Oc2ccc3ncn(C4CCC(N5CC6(CCN(c7cc8c(cc7F)c(N7CCC(=O)NC7=O)nn8C)CC6)C5)CC4)c(=O)c3c2)c1C#N` (single isomer, unassigned) [Compound 222, 6-[2-cyano-3-[[ethyl(methyl)sulfamoyl]amino]-6-fluoro-phenoxy]-3-[4-[7-[3-(2,4-dioxohexahydropyrimidin-1-yl)-5-fluoro-1-methyl-indazol-6-yl]-2,7-diazaspiro[3.5]nonan-2-yl]cyclohexyl]-4-oxo-quinazoline], for which, in assay [1] (setting [3]), the DC50 was below 1000 nM. Besides, the DC50 in assay [1] (setting [4]) was below 1000 nM. Moreover, in assay [1] (setting [6]), the “HiBiT-Degradation A375.10 BRAF 2 hours Emax” value was “*** (<=50%)”. In addition, in assay [2], the 50% growth inhibitory concentration (GI50) is below 1 µM; the “CTGlo A375.11 96 hours Emax” value was “** (<90% and >50%)”.

In the case of `CCN(C)S(=O)(=O)Nc1ccc(F)c(Oc2ccc3ncc(OCC4(F)CCN(C5CCC(c6cc7c(cc6F)c(N6CCC(=O)NC6=O)nn7C)CC5)CC4)nc3c2)c1C#N` (single isomer, unassigned) [Compound 228, 7-[2-cyano-3-[[ethyl(methyl)sulfamoyl]amino]-6-fluoro-phenoxy]-2-[[1-[4-[3-(2,4-dioxohexahydropyrimidin-1-yl)-5-fluoro-1-methyl-indazol-6-yl]cyclohexyl]-4-fluoro-4-piperidyl]methoxy]quinoxaline], the results for the DC50 in assay [1] (setting [3]) and in assay [1] (setting [4]) were below 1000 nM and 1000 to 10000 nM, respectively. Besides, the Emax in assay [1] (setting [5]) lay in the range of 50 to 90%; in assay [2] (Homo sapiens, 96 h), 50 to 90%. The same compound gave a concentration for 50% growth inhibition (GI50) in assay [2] (Homo sapiens, 96 h) of 1 to 10 µM.

As for `CCN(C)S(=O)(=O)Nc1ccc(F)c(Oc2ccc3ncc(OCC4(F)CCN(C5CCC(c6cc7c(cc6F)c(N6CCC(=O)NC6=O)nn7C)CC5)CC4)nc3c2)c1C#N` (single isomer, unassigned) [Compound 229, 7-[2-cyano-3-[[ethyl(methyl)sulfamoyl]amino]-6-fluoro-phenoxy]-2-[[1-[4-[3-(2,4-dioxohexahydropyrimidin-1-yl)-5-fluoro-1-methyl-indazol-6-yl]cyclohexyl]-4-fluoro-4-piperidyl]methoxy]quinoxaline], the DC50 in assay [1] (setting [3]) is below 1000 nM. Moreover, the DC50 in assay [1] (setting [4]) is below 1000 nM. Besides, the “HiBiT-Degradation A375.10 BRAF 2 hours Emax” value in assay [1] (setting [6]) is “*** (<=50%)”. Moreover, in assay [2], the GI50 is below 1 µM; the “CTGlo A375.11 96 hours Emax” value is “** (<90% and >50%)”.

With `CCN(C)S(=O)(=O)Nc1ccc(F)c(Oc2ccc3ncnc(OC4CC5(C4)CN(C4CCC(c6cc7c(cc6F)c(N6CCC(=O)NC6=O)nn7C)CC4)C5)c3c2)c1C#N` (single isomer, unassigned) [Compound 232, 6-[2-cyano-3-[[ethyl(methyl)sulfamoyl]amino]-6-fluoro-phenoxy]-4-[[2-[4-[3-(2,4-dioxohexahydropyrimidin-1-yl)-5-fluoro-1-methyl-indazol-6-yl]cyclohexyl]-2-azaspiro[3.3]heptan-6-yl]oxy]quinazoline], the DC50 in assay [1] (setting [3]) and in assay [1] (setting [4]) was below 1000 nM each time. Also, the Emax was 50 to 90% in assay [1] (read-out: HiBiT-Degradation A375.10 BRAF 2 hours Emax, A375.10 cells, BRAF V600E, 2 hours, residual protein remaining) and 50 to 90% in assay [2] (Homo sapiens, 96 h). In assay [2] (Homo sapiens, 96 h), this compound displayed a GI50 above 10 µM.

On to `CCN(C)S(=O)(=O)Nc1ccc(F)c(Oc2ccc3ncnc(OC4CC5(C4)CN(C4CCC(c6cc7c(cc6F)c(N6CCC(=O)NC6=O)nn7C)CC4)C5)c3c2)c1C#N` (single isomer, unassigned) [Compound 233, 6-[2-cyano-3-[[ethyl(methyl)sulfamoyl]amino]-6-fluoro-phenoxy]-4-[[2-[4-[3-(2,4-dioxohexahydropyrimidin-1-yl)-5-fluoro-1-methyl-indazol-6-yl]cyclohexyl]-2-azaspiro[3.3]heptan-6-yl]oxy]quinazoline], for which, in assay [1], the “HiBiT-Degradation A375.10 BRAF 2 hours Emax” value was “** (<90% and >50%)”. Also, in assay [1] (setting [3]), the DC50 is below 1000 nM. Further, the DC50 in assay [1] (setting [4]) is below 1000 nM. In assay [2], the GI50 is above 10 µM; the “CTGlo A375.11 96 hours Emax” value was “** (<90% and >50%)”.

As to `CCN(C)S(=O)(=O)Nc1ccc(F)c(Oc2ccc3ncn([C@H]4COC5(C4)CN(C4CCC(c6cc7c(cc6F)c(N6CCC(=O)NC6=O)nn7C)CC4)C5)c(=O)c3c2)c1C#N` (single isomer, unassigned) [Compound 235], the DC50 is below 1000 nM in assay [1] (setting [3]) and 1000 to 10000 nM in assay [1] (setting [4]). For the same compound, the Emax in assay [1] (setting [5]) was below 50%; in assay [2] (Homo sapiens, 96 h), 50 to 90%. Also, the GI50 in assay [2] is above 10 µM.

In the case of `CCN(C)S(=O)(=O)Nc1ccc(F)c(Oc2ccc3ncn([C@H]4COC5(C4)CN(C4CCC(c6cc7c(cc6F)c(N6CCC(=O)NC6=O)nn7C)CC4)C5)c(=O)c3c2)c1C#N` (single isomer, unassigned) [Compound 236], the DC50 in assay [1] (setting [3]) was below 1000 nM. Further, in assay [1] (setting [4]), the DC50 is below 1000 nM. Moreover, the “HiBiT-Degradation A375.10 BRAF 2 hours Emax” value in assay [1] (setting [6]) is “*** (<=50%)”. In assay [2], the GI50 lay within 1 to 10 µM; the “CTGlo A375.11 96 hours Emax” value was “** (<90% and >50%)”.

Regarding `CCN(C)S(=O)(=O)Nc1ccc(F)c(Oc2ccc3ncn([C@@H]4COC5(C4)CN(C4CCC(c6cc7c(cc6F)c(N6CCC(=O)NC6=O)nn7C)CC4)C5)c(=O)c3c2)c1C#N` (single isomer, unassigned) [Compound 237], the DC50 in assay [1] (setting [3]) and in assay [1] (setting [4]) was below 1000 nM throughout. Moreover, the Emax in assay [1] (setting [5]) was below 50%; in assay [2] (Homo sapiens, 96 h) it was 50 to 90%. In assay [2], this compound gave a GI50 above 10 µM.
